Test results from patent US4575560A, “Insecticidal diaminoguanidine hydrazone compounds” (American Cyanamid Company, priority 1985, dated 1986).
≈ marks a conversion by molar mass, not a printed value. Counter-ions that a name gives are not always drawn.

Assays:
[1] = test system: Tobacco Budworm 3rd Instar; assay: Tobacco budworm secondary test, third-instar larvae on treated cotton cotyledons; type: in vivo, Heliothis virescens (Fabricus)
Protocol: Three cotton plants with just expanded cotyledons are dipped in 1000 ppm solution and placed in the hood to dry. When dry, each cotyledon is cut in half, and 10 are each placed in a 28 g plastic medicine cup containing a 1.25 cm dental wick saturated with water, and one third-instar budworm larva is added. The cup is capped and held for three days at 80° F., 50% relative humidity, after which mortality counts are made.

Southern Armyworm = assay: Southern armyworm test, third-instar larvae on treated Sieva lima bean leaves; type: in vivo, Spodoptera eridania (Cramer); conditions: for Mortality Rating Southern Armyworm: third-instar larvae
In short: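 Sieva lima bean plants, primary leaves expanded to 1.91 cm, were dipped with agitation for three seconds in test material dissolved in 65% acetone, with further dilutions in acetone, then air-dried in a hood. A treated leaf was placed in a 9 cm petri dish on moist filter paper with 10 third-instar Spodoptera eridania larvae about 1 cm long. Dishes were covered and kept at 80° F. and 50% r.h. Mortality and feeding were assessed after two days.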

[2] = test system: Tobacco Budworm 1st Instar; assay: Tobacco budworm initial test, treated eggs / newly hatched (1st instar) larvae on treated cotton leaves; type: in vivo, Heliothis virescens (Fabricus)
Protocol: Test formulations and procedures used for evaluation are as follows:
A. 100 mg of the test material is weighed, placed in a funnel over a 113 g narrow-mouth bottle, rinsed into the bottle with a 35 mL scoop of acetone, followed by a 35 mL scoop of water and another 35 mL scoop of acetone to yield 1000 ppm in 65% acetone. If the material is not soluble, it is broken up with a glass rod and used as a suspension.
B. This stock solution ("A") is used to make 300 ppm solutions or suspensions by pipetting 30 mL of "A" into a bottle containing 70 mL of 50% acetone to yield 300 ppm. Further dilutions in 50% acetone are made as required.
C. Tests requiring 10 ppm acetone solutions: 1 mL of "A" is pipetted into 99 mL of acetone to yield 10 ppm. Additional dilutions are made using 50% acetone as required.
Tobacco Budworm--Heliothis virescens (Fabricus)
A cotton plant with two true leaves expanded is dipped for three seconds with agitation in 300 ppm solution. A 1.27 to 1.91 cm square of cheesecloth with about 50 to 100 budworm eggs 0-24 hours old is also dipped in the test solution and placed on a leaf of the cotton plant, all being placed in the hood to dry. The leaf with the treated budworm eggs is removed from the plant and placed in a 226 g Dixie cup with a wet 5 cm piece of dental wick and covered with a lid. The other leaf is placed in a similar cup with a wick and a piece of cheesecloth infested with 50-100 newly hatched larvae is added before covering the cup with a lid. After three days at 80° F., 50% relative humidity, observations of egg hatch are made, as well as kill of newly hatched larvae, any inhibition of feeding, or interference of any sort with normal development.

SMILES | Mortality Rating Tobacco Budworm 3rd Instar ([1]; 100 ppm) | Mortality Rating Tobacco Budworm 3rd Instar ([1]; 1000 ppm) | Mortality Rating Southern Armyworm (Southern Armyworm; 10 ppm) | Mortality Rating Southern Armyworm (Southern Armyworm; 100 ppm) | Mortality Rating Southern Armyworm (Southern Armyworm; 1000 ppm) | Mortality Rating Tobacco Budworm 1st Instar ([2]; 300 ppm) | Mortality Rating Tobacco Budworm 1st Instar ([2]; 100 ppm) | Mortality Rating Tobacco Budworm 3rd Instar ([1]; 10 ppm) | reduced feeding (R) Tobacco Budworm 3rd Instar ([1]; 100 ppm) | reduced feeding (R) Tobacco Budworm 3rd Instar ([1]; 1000 ppm) | Mortality Rating Tobacco Budworm 1st Instar ([2]; 10 ppm) | reduced feeding (R) Tobacco Budworm 1st Instar ([2]; 100 ppm) | LC50 (Southern Armyworm; Spodoptera eridania, read-out: LC50 Southern Armyworm) [µg/mL] | LC50 Southern Armyworm (Southern Armyworm; southern armyworm, in vivo) [ppm]
CN(C)C(=O)N(N=Cc1ccc(Br)cc1)C(=N)NN=Cc1ccc(Br)cc1 [Br / Br / CH3 / CH3] | 0 (No effect) | 2 (26-35%) | 0 (No effect) | 9 (100%) | 9 (100%) | 0 (No effect) | – | – | – | – | – | – | – | –
N=C(NN=Cc1ccc(Br)cc1)NN=Cc1ccc(Br)cc1 [Br / HNO3] | – | – | – | 5 (56-65%) | 9 (100%) | 0 (No effect) | – | – | – | – | – | – | – | –
N=C(NN=Cc1ccc(C(F)(F)F)cc1)NN=Cc1ccc(C(F)(F)F)cc1 [CF3 / B, 1,3-bis{[p-(trifluoromethyl)benzylidene]amino}guanidine] | 0 (No effect) | 8 (86-99%) | 0 (No effect) | 9 (100%) | 9 (100%) | 6 (66-75%) | 0 (No effect) | – | – | – | – | – | – | –
N=C(NN=Cc1ccc(Br)cc1)NN=Cc1ccc(C(F)(F)F)cc1 [CF3 / Br / HCl] | 0 (No effect) | 0 (No effect) | – | – | 9 (100%) | 9 (100%) | 0 (No effect) | 0 (No effect) | R | R | 0 (No effect) | R | – | –
CC(C)OC(=O)N(N=Cc1ccc(C(F)(F)F)cc1)C(=N)NN=Cc1ccc(C(F)(F)F)cc1 [CF3 / CF3 / -i-C3 H7] | 0 (No effect) | 3 (36-45%) | 9 (100%) | 9 (100%) | 9 (100%) | 0 (No effect) | – | – | R | R | – | – | – | –
CC(C)COC(=O)N(N=Cc1ccc(C(F)(F)F)cc1)C(=N)NN=Cc1ccc(C(F)(F)F)cc1 [CF3 / CF3 / -i-C4 H9] | – | 0 (No effect) | – | 0 (No effect) | 9 (100%) | 0 (No effect) | – | – | – | – | – | – | – | –
CCN(CC)C(=O)N(N=Cc1ccc(C(F)(F)F)cc1)C(=N)NN=Cc1ccc(C(F)(F)F)cc1 [CF3 / CF3 / C2 H5 / C2 H5] | – | 4 (46-55%) | 7 (76-85%) | 9 (100%) | 9 (100%) | 0 (No effect) | – | – | – | – | – | – | 8 (≈ 16 µM) | 12
N=C(NN=Cc1ccc(OC(F)(F)F)cc1)NN=Cc1ccc(OC(F)(F)F)cc1 [CF3 O / HCl] | – | – | 0 (No effect) | 9 (100%) | 9 (100%) | 9 (100%) | – | – | – | – | – | – | – | –
CC(C)OC(=O)N(N=Cc1ccc2c(c1)OC(F)C(F)(F)O2)C(=N)NN=Cc1ccc2c(c1)OC(F)C(F)(F)O2 (centres unmarked) [drawing 52 / drawing 53 / -i-C3 H7] | 0 (No effect) | 0 (No effect) | 0 (No effect) | 5 (56-65%) | 8 (86-99%) | – | – | – | – | R | – | – | – | –
N=C(NN=Cc1ccc(OC(F)(F)C(F)Cl)cc1)N(N=Cc1ccc(OC(F)(F)C(F)Cl)cc1)C(=O)OCCCl (centres unmarked) [drawing 57 / drawing 58 / ClCH2 CH2] | – | 0 (No effect) | – | 9 (100%) | 9 (100%) | – | – | – | – | R | – | – | – | –
